# Test results taken from patent publication US20250059217A1, “HETEROCYCLIC COMPOUNDS AND METHODS OF PREPARATION THEREOF” (priority 2021, published 2025).
# pEC50: −log10 of the molar value. Where a name gives a salt, the structure may show the parent alone.
# Target: T1, 5-HT2A receptor (Homo sapiens, UniProt P28223)
# T1 construct: expressed in transfected cells; host or cells: HEK293T
# Test: Serotonin receptor 5-HT2 functional assay (Gq dissociation BRET or Gq-dependent calcium flux), 5-HT2A
# Format: cell-based
# Conditions: not given
# T1 sequence (P28223 whole entry): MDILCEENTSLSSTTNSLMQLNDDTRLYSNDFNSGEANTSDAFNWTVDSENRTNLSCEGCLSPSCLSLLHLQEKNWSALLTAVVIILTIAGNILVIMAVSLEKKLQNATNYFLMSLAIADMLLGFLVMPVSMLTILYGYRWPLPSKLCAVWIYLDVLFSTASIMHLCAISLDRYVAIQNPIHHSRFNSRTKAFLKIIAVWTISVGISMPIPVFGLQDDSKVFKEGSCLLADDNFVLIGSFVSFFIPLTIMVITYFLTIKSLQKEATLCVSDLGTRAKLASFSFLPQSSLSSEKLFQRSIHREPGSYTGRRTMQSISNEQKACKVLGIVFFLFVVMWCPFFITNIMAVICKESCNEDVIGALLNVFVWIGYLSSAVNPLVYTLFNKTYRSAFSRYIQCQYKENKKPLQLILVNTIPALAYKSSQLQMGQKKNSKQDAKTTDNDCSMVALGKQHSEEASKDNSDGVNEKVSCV
row,Structure (SMILES),pEC50
1,"CN(C)CCc1c[nH]c2cc(F)cc(O)c12 [Compound 36, 3-[2-(Dimethylamino)ethyl]-6-fluoroindol-4-ol]",8.54
2,"Cc1cc(O)c2c(CCN(C)C)c[nH]c2c1 [Compound 37, 3-[2-(Dimethylamino)ethyl]-6-methylindol-4-ol]",7.23
3,"CN(C)CCc1c[nH]c2c(C#N)ccc(O)c12 [Compound 64, 3-[2-(Dimethylamino)ethyl]-4-hydroxyindole-7-carbonitrile]",6.57

# Same assay, conditions: Table 4; efficacy relative to 4-hydroxytryptamine; at least three replicate trials
row,Structure (SMILES),5-HT2A BRET Eff %
1,"NCCc1c[nH]c2cccc(O)c12 [4-hydroxytryptamine, reference compound]",100%
2,"CN(C)CCc1c[nH]c2c(CCO)ccc(O)c12 [Compound 7, 3-[2-(Dimethylamino)ethyl]-7-(2-hydroxyethyl)indol-4-ol]",81%
3,"CN(C)CCc1c[nH]c2c(CCF)ccc(O)c12 [Compound 8, 3-[2-(Dimethylamino)ethyl]-7-(2-fluoroethyl)indol-4-ol]",inactive
4,Cc1cc(F)c(O)c2c(CCN(C)C)c[nH]c12 [Compound 30],64%
5,"CN(C)CCc1c[nH]c2cc(F)cc(O)c12 [Compound 36, 3-[2-(Dimethylamino)ethyl]-6-fluoroindol-4-ol]",92%
6,"Cc1cc(O)c2c(CCN(C)C)c[nH]c2c1 [Compound 37, 3-[2-(Dimethylamino)ethyl]-6-methylindol-4-ol]",88%
7,"Cc1ccc(OCc2ccc(C(F)(F)F)cc2)c2c(CCN(C)C)c[nH]c12 [Compound 39, Dimethyl[2-[7-methyl-4-[4-(trifluoromethyl)benzyloxy]indol-3-yl]ethyl]amine]",90%
8,"CN(C)CCc1c[nH]c2c(C#N)ccc(O)c12 [Compound 64, 3-[2-(Dimethylamino)ethyl]-4-hydroxyindole-7-carbonitrile]",49%
9,"CN(C)CCc1c[nH]c2c(C(N)=O)ccc(O)c12 [Compound 65, 3-[2-(Dimethylamino)ethyl]-4-hydroxyindole-7-carboxamide]",inactive
10,"Cc1ccc(O)c2c(C[C@H]3CCN3C)c[nH]c12 [Compound 77, 7-Methyl-3-[((S)-1-methylazetidin-2-yl)methyl]indol-4-ol]",69%
11,Cc1cc2c(c3c(CCN)c[nH]c13)CCCO2 [Compound 110],91%
12,"CN(C)CCc1cn2c3c(cccc13)OCC2 [Compound 135, [2-(2,3-Dihydro-[1,4]oxazino[2,3,4-hi]indol-6-yl)ethyl]dimethylamine Hydrochloride]",76%
13,"CN(C)CCc1c[nH]c2cccc(O)c12 [psilocin, reference compound]",82%

# Same assay, conditions: Table 4; relative to 4-hydroxytryptamine; at least three replicate trials
row,Structure (SMILES),5-HT2A BRET EC50 (nM)
1,"CN(C)CCc1c[nH]c2c(CCF)ccc(O)c12 [Compound 8, 3-[2-(Dimethylamino)ethyl]-7-(2-fluoroethyl)indol-4-ol]",inactive
2,"CN(C)CCc1c[nH]c2c(C(N)=O)ccc(O)c12 [Compound 65, 3-[2-(Dimethylamino)ethyl]-4-hydroxyindole-7-carboxamide]",inactive

# Same assay, conditions: Table 4; relative to 4-hydroxytryptamine; at least three replicate trials; read-out: 5-HT2A BRET EC50
row,Structure (SMILES),pEC50
1,"NCCc1c[nH]c2cccc(O)c12 [4-hydroxytryptamine, reference compound]",8.54
2,"CN(C)CCc1c[nH]c2c(CCO)ccc(O)c12 [Compound 7, 3-[2-(Dimethylamino)ethyl]-7-(2-hydroxyethyl)indol-4-ol]",7.12
3,"Cc1ccc(OCc2ccc(C(F)(F)F)cc2)c2c(CCN(C)C)c[nH]c12 [Compound 39, Dimethyl[2-[7-methyl-4-[4-(trifluoromethyl)benzyloxy]indol-3-yl]ethyl]amine]",5.12
4,"Cc1ccc(O)c2c(C[C@H]3CCN3C)c[nH]c12 [Compound 77, 7-Methyl-3-[((S)-1-methylazetidin-2-yl)methyl]indol-4-ol]",7.31
5,Cc1cc2c(c3c(CCN)c[nH]c13)CCCO2 [Compound 110],6.56
6,"CN(C)CCc1cn2c3c(cccc13)OCC2 [Compound 135, [2-(2,3-Dihydro-[1,4]oxazino[2,3,4-hi]indol-6-yl)ethyl]dimethylamine Hydrochloride]",6.12

# Target: T2, 5-HT2C receptor (Homo sapiens, UniProt P28335)
# T2 construct: expressed in transfected cells; host or cells: HEK293T
# T2 sequence (P28335 33-458): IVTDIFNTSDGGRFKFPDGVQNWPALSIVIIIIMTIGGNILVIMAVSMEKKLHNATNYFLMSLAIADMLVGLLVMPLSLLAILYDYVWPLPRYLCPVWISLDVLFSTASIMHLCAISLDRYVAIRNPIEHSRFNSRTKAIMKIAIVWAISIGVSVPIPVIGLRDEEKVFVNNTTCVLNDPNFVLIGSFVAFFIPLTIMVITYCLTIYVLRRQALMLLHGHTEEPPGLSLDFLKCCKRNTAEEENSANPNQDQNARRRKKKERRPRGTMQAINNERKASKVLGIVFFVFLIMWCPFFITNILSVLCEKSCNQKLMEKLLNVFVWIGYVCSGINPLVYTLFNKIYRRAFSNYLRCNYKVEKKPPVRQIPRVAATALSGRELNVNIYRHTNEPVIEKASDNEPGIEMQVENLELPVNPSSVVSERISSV
# Test: cell-based
# Conditions: not given
Structure (SMILES),5-HT2C BRET Eff %,pEC50
"NCCc1c[nH]c2cccc(O)c12 [4-hydroxytryptamine, reference compound]",99%,9.46
"CN(C)CCc1c[nH]c2c(CCF)ccc(O)c12 [Compound 8, 3-[2-(Dimethylamino)ethyl]-7-(2-fluoroethyl)indol-4-ol]",56%,5.41
"CN(C)CCc1c[nH]c2cc(F)cc(O)c12 [Compound 36, 3-[2-(Dimethylamino)ethyl]-6-fluoroindol-4-ol]",93%,8.77
"Cc1cc(O)c2c(CCN(C)C)c[nH]c2c1 [Compound 37, 3-[2-(Dimethylamino)ethyl]-6-methylindol-4-ol]",95%,8.82
"CN(C)CCc1c[nH]c2c(C#N)ccc(O)c12 [Compound 64, 3-[2-(Dimethylamino)ethyl]-4-hydroxyindole-7-carbonitrile]",79%,7.06

# Same assay, conditions: Table 4; efficacy relative to 4-hydroxytryptamine; at least three replicate trials
row,Structure (SMILES),5-HT2C BRET Eff %
1,"CN(C)CCc1c[nH]c2c(CCO)ccc(O)c12 [Compound 7, 3-[2-(Dimethylamino)ethyl]-7-(2-hydroxyethyl)indol-4-ol]",76%
2,"Cc1ccc(OCc2ccc(C(F)(F)F)cc2)c2c(CCN(C)C)c[nH]c12 [Compound 39, Dimethyl[2-[7-methyl-4-[4-(trifluoromethyl)benzyloxy]indol-3-yl]ethyl]amine]",81%
3,"CN(C)CCc1c[nH]c2c(C(N)=O)ccc(O)c12 [Compound 65, 3-[2-(Dimethylamino)ethyl]-4-hydroxyindole-7-carboxamide]",69%
4,"Cc1ccc(O)c2c(C[C@H]3CCN3C)c[nH]c12 [Compound 77, 7-Methyl-3-[((S)-1-methylazetidin-2-yl)methyl]indol-4-ol]",66%
5,Cc1cc2c(c3c(CCN)c[nH]c13)CCCO2 [Compound 110],96%
6,"CN(C)CCc1cn2c3c(cccc13)OCC2 [Compound 135, [2-(2,3-Dihydro-[1,4]oxazino[2,3,4-hi]indol-6-yl)ethyl]dimethylamine Hydrochloride]",96%

# Same assay, conditions: Table 4; relative to 4-hydroxytryptamine; at least three replicate trials; read-out: 5-HT2C BRET EC50
row,Structure (SMILES),pEC50
1,"CN(C)CCc1c[nH]c2c(CCO)ccc(O)c12 [Compound 7, 3-[2-(Dimethylamino)ethyl]-7-(2-hydroxyethyl)indol-4-ol]",8.25
2,"Cc1ccc(OCc2ccc(C(F)(F)F)cc2)c2c(CCN(C)C)c[nH]c12 [Compound 39, Dimethyl[2-[7-methyl-4-[4-(trifluoromethyl)benzyloxy]indol-3-yl]ethyl]amine]",6.88
3,"CN(C)CCc1c[nH]c2c(C(N)=O)ccc(O)c12 [Compound 65, 3-[2-(Dimethylamino)ethyl]-4-hydroxyindole-7-carboxamide]",5.00
4,"Cc1ccc(O)c2c(C[C@H]3CCN3C)c[nH]c12 [Compound 77, 7-Methyl-3-[((S)-1-methylazetidin-2-yl)methyl]indol-4-ol]",8.14
5,Cc1cc2c(c3c(CCN)c[nH]c13)CCCO2 [Compound 110],7.16
6,"CN(C)CCc1cn2c3c(cccc13)OCC2 [Compound 135, [2-(2,3-Dihydro-[1,4]oxazino[2,3,4-hi]indol-6-yl)ethyl]dimethylamine Hydrochloride]",8.05

# Target: T3, 5-HT2B receptor (Homo sapiens, UniProt P41595)
# T3 construct: expressed in transfected cells; host or cells: HEK293T
# T3 sequence (P41595 whole entry): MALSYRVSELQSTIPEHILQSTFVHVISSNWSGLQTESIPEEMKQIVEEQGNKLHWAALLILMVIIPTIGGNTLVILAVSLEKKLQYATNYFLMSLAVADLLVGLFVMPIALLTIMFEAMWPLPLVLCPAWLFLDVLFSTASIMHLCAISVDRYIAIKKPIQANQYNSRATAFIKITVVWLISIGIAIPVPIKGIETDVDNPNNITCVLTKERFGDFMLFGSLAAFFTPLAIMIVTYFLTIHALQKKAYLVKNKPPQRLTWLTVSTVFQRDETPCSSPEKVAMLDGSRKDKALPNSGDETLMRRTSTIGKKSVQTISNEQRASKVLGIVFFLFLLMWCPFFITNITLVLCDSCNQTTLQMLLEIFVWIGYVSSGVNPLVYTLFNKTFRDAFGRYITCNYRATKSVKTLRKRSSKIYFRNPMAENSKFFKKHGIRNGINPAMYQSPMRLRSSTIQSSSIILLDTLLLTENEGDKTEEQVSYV
# Test: Serotonin receptor 5-HT2 functional assay (Gq dissociation BRET or Gq-dependent calcium flux), 5-HT2B
# Format: cell-based
# Conditions: 5-HT2B BRET EC50 (nM), Table 4; relative to 4-hydroxytryptamine; at least three replicate trials
row,Structure (SMILES),EC50
1,"CN(C)CCc1c[nH]c2cc(F)cc(O)c12 [Compound 36, 3-[2-(Dimethylamino)ethyl]-6-fluoroindol-4-ol]",4.2 nM
2,"Cc1cc(O)c2c(CCN(C)C)c[nH]c2c1 [Compound 37, 3-[2-(Dimethylamino)ethyl]-6-methylindol-4-ol]",189 nM

# Same assay, conditions: Table 4; efficacy relative to 4-hydroxytryptamine; at least three replicate trials
row,Structure (SMILES),5-HT2B BRET Eff %
1,"NCCc1c[nH]c2cccc(O)c12 [4-hydroxytryptamine, reference compound]",100%
2,"CN(C)CCc1c[nH]c2c(CCO)ccc(O)c12 [Compound 7, 3-[2-(Dimethylamino)ethyl]-7-(2-hydroxyethyl)indol-4-ol]",inactive
3,"CN(C)CCc1c[nH]c2c(CCF)ccc(O)c12 [Compound 8, 3-[2-(Dimethylamino)ethyl]-7-(2-fluoroethyl)indol-4-ol]",inactive
4,Cc1cc(F)c(O)c2c(CCN(C)C)c[nH]c12 [Compound 30],8%
5,"CN(C)CCc1c[nH]c2cc(F)cc(O)c12 [Compound 36, 3-[2-(Dimethylamino)ethyl]-6-fluoroindol-4-ol]",62%
6,"Cc1cc(O)c2c(CCN(C)C)c[nH]c2c1 [Compound 37, 3-[2-(Dimethylamino)ethyl]-6-methylindol-4-ol]",41%
7,"Cc1ccc(OCc2ccc(C(F)(F)F)cc2)c2c(CCN(C)C)c[nH]c12 [Compound 39, Dimethyl[2-[7-methyl-4-[4-(trifluoromethyl)benzyloxy]indol-3-yl]ethyl]amine]",inactive
8,"CN(C)CCc1c[nH]c2c(C#N)ccc(O)c12 [Compound 64, 3-[2-(Dimethylamino)ethyl]-4-hydroxyindole-7-carbonitrile]",inactive
9,"CN(C)CCc1c[nH]c2c(C(N)=O)ccc(O)c12 [Compound 65, 3-[2-(Dimethylamino)ethyl]-4-hydroxyindole-7-carboxamide]",inactive
10,"Cc1ccc(O)c2c(C[C@H]3CCN3C)c[nH]c12 [Compound 77, 7-Methyl-3-[((S)-1-methylazetidin-2-yl)methyl]indol-4-ol]",41%
11,Cc1cc2c(c3c(CCN)c[nH]c13)CCCO2 [Compound 110],63%
12,"CN(C)CCc1cn2c3c(cccc13)OCC2 [Compound 135, [2-(2,3-Dihydro-[1,4]oxazino[2,3,4-hi]indol-6-yl)ethyl]dimethylamine Hydrochloride]",42%
13,"CN(C)CCc1c[nH]c2cccc(O)c12 [psilocin, reference compound]",63%

# Same assay, conditions: Table 4; relative to 4-hydroxytryptamine; at least three replicate trials
row,Structure (SMILES),5-HT2B BRET EC50 (nM)
1,"CN(C)CCc1c[nH]c2c(CCO)ccc(O)c12 [Compound 7, 3-[2-(Dimethylamino)ethyl]-7-(2-hydroxyethyl)indol-4-ol]",inactive
2,"CN(C)CCc1c[nH]c2c(CCF)ccc(O)c12 [Compound 8, 3-[2-(Dimethylamino)ethyl]-7-(2-fluoroethyl)indol-4-ol]",inactive
3,"Cc1ccc(OCc2ccc(C(F)(F)F)cc2)c2c(CCN(C)C)c[nH]c12 [Compound 39, Dimethyl[2-[7-methyl-4-[4-(trifluoromethyl)benzyloxy]indol-3-yl]ethyl]amine]",inactive
4,"CN(C)CCc1c[nH]c2c(C#N)ccc(O)c12 [Compound 64, 3-[2-(Dimethylamino)ethyl]-4-hydroxyindole-7-carbonitrile]",inactive
5,"CN(C)CCc1c[nH]c2c(C(N)=O)ccc(O)c12 [Compound 65, 3-[2-(Dimethylamino)ethyl]-4-hydroxyindole-7-carboxamide]",inactive

# Same assay, conditions: Table 4; relative to 4-hydroxytryptamine; at least three replicate trials; read-out: 5-HT2B BRET EC50
row,Structure (SMILES),pEC50
1,"NCCc1c[nH]c2cccc(O)c12 [4-hydroxytryptamine, reference compound]",9.10
2,"Cc1ccc(O)c2c(C[C@H]3CCN3C)c[nH]c12 [Compound 77, 7-Methyl-3-[((S)-1-methylazetidin-2-yl)methyl]indol-4-ol]",7.24
3,Cc1cc2c(c3c(CCN)c[nH]c13)CCCO2 [Compound 110],6.86
4,"CN(C)CCc1cn2c3c(cccc13)OCC2 [Compound 135, [2-(2,3-Dihydro-[1,4]oxazino[2,3,4-hi]indol-6-yl)ethyl]dimethylamine Hydrochloride]",7.97
